Test results as given in ChEMBL document CHEMBL6182845, “Synthesis, screening and validation of cysteine-reactive fragments as chikungunya virus protease inhibitors” (Bioorg Med Chem Lett, 2025).
The source made the active and inactive calls. No cut-off for these calls is given here.

Columns and labels:
[1] = target: Polyprotein P1234 (Chikungunya virus (strain S27-African prototype) (CHIKV)) (UniProt Q8JUX6); assay: Inhibition of CHIKV nsP2 protease at 1 mM by FRET assay relative to control
[2] = target: Polyprotein P1234 (Chikungunya virus (strain S27-African prototype) (CHIKV), UniProt Q8JUX6); assay: Inhibition of CHIKV nsP2 protease by FRET assay
[3] = target: Polyprotein P1234 (Chikungunya virus (strain S27-African prototype) (CHIKV)) (UniProt Q8JUX6); assay: Irreversible binding affinity to CHIKV nsP2 protease at 10 uM preincubated with compound followed by 100 fold dilution and subsequent addition of substrate by jump-dilution assay
[4] = target: Polyprotein P1234 (Chikungunya virus (strain S27-African prototype) (CHIKV)) (UniProt Q8JUX6); assay: Reversible binding affinity to CHIKV nsP2 protease at 10 uM preincubated with compound followed by 100 fold dilution and subsequent addition of substrate by jump-dilution assay
[5] = target: Replicase polyprotein 1ab (Severe acute respiratory syndrome coronavirus 2) (UniProt P0DTD1); assay: Inhibition of SARS-CoV-2 PLpro at 1 mM by FRET analysis
[6] = target: Polyprotein P1234 (Sindbis virus) (UniProt P03317); assay: Inhibition of SINV nsP2pro at 1 mM by FRET analysis
[7] = target: Polyprotein P1234 (Chikungunya virus (strain S27-African prototype) (CHIKV)) (UniProt Q8JUX6); assay: Binding affinity to CHIKV nsP2 protease assessed as covalent modification by mass spectrometry

Sequence of Polyprotein P1234 (Chikungunya virus (strain S27-African prototype) (CHIKV)) (Q8JUX6 whole entry): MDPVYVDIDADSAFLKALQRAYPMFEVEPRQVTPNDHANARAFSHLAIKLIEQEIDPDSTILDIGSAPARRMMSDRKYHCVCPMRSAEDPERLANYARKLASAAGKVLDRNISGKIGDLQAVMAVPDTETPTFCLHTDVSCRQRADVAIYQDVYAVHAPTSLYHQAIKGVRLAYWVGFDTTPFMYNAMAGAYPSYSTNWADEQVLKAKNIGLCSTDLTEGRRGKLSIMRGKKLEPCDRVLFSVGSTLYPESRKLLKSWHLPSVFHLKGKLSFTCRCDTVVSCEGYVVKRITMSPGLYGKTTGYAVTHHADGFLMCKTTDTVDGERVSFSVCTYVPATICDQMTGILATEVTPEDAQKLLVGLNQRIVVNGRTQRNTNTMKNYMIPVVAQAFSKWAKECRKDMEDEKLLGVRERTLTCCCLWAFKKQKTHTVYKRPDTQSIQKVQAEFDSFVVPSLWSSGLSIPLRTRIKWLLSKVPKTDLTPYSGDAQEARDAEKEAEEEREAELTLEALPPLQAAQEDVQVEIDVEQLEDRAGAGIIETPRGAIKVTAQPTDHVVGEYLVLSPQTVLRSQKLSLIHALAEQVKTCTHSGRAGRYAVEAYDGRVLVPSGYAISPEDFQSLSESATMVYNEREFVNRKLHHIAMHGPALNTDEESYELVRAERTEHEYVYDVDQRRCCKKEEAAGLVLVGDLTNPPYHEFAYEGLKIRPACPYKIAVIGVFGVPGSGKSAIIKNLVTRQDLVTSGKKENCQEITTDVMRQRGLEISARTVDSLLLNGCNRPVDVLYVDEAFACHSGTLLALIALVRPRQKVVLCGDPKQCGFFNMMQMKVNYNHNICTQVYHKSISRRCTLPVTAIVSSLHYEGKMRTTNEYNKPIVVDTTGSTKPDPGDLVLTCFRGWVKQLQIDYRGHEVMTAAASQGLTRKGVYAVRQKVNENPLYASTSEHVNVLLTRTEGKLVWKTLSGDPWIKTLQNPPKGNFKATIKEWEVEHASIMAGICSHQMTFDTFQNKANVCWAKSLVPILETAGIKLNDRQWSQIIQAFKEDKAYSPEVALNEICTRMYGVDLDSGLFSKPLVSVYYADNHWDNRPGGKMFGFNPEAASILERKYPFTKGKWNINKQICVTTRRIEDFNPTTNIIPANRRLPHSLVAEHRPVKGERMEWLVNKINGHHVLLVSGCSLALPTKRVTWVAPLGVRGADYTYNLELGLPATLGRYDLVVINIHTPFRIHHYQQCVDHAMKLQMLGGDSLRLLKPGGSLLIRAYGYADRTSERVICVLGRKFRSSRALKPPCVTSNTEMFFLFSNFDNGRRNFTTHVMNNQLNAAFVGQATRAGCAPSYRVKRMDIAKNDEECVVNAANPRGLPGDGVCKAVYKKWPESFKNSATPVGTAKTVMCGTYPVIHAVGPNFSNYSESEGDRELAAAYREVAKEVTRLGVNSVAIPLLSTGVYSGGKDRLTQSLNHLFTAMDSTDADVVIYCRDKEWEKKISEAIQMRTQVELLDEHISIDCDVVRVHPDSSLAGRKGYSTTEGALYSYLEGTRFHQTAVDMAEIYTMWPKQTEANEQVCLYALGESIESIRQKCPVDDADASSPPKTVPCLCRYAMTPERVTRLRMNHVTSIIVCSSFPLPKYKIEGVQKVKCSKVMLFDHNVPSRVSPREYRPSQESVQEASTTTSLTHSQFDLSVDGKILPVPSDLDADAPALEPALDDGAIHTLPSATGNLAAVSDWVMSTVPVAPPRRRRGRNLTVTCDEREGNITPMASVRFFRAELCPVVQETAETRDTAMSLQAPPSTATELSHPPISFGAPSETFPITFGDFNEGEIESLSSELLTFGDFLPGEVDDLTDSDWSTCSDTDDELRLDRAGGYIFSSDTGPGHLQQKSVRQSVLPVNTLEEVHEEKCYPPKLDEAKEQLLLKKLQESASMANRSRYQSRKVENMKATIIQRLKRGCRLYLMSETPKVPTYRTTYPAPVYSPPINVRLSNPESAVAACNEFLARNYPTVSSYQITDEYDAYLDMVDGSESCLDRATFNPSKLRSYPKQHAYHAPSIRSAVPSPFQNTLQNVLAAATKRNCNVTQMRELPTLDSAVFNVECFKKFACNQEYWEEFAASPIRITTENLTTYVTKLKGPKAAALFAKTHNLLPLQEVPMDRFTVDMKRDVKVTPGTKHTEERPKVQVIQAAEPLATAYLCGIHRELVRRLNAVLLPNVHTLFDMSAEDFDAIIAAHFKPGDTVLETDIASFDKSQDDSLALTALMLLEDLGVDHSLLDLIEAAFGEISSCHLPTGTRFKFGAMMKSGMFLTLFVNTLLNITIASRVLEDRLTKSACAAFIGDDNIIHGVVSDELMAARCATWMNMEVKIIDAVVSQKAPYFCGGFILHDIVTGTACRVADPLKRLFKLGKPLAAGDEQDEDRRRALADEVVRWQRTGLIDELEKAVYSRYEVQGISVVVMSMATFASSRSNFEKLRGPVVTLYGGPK
Sequence of Polyprotein P1234 (Q8JUX6 536-1333 limits assumed): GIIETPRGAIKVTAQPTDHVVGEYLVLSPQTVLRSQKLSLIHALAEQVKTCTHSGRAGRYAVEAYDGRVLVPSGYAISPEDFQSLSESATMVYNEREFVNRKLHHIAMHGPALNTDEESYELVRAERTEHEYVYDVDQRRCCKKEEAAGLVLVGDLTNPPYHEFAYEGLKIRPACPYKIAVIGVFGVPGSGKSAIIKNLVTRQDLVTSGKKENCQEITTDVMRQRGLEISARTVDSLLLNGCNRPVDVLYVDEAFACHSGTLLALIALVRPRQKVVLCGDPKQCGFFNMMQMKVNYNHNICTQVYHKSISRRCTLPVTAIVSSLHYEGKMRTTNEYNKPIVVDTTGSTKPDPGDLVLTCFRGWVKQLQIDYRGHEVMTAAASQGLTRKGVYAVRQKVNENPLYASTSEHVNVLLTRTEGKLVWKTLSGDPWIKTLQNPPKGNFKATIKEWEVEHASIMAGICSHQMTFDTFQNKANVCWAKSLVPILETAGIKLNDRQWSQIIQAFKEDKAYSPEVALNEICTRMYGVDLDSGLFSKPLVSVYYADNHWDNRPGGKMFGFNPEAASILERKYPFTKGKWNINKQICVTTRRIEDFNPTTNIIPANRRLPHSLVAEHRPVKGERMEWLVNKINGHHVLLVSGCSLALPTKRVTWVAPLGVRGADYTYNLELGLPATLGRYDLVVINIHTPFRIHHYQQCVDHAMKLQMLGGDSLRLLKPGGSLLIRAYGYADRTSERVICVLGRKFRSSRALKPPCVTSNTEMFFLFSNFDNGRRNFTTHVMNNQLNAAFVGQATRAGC

| Structure (SMILES) | inhibition [1] | also measured |
| --- | --- | --- |
| C=CC(=O)NCCc1ccc(O)cc1 | < 40% |  |
| C=CC(=O)Nc1cccc(C)c1C | < 40% |  |
| C=CC(=O)NCc1ccc(Cl)cc1F | < 40% |  |
| C=CC(=O)N[C@H]1CCc2ccccc21 | < 40% |  |
| C=CC(=O)NCc1ccc(Br)cc1F | < 40% |  |
| C=CC(=O)NCCc1ccccc1 | < 40% |  |
| C=CC(=O)N(C)Cc1ccccc1 | < 40% |  |
| C=CC(=O)NCc1cccc(C(F)(F)F)c1 | > 40% | IC50 [2]: 1300 µM; Activity [3]: Active |
| C=CC(=O)Nc1ccc(OC)cc1[N+](=O)[O-] | > 40% |  |
| C=CC(=O)NCc1ccc(Cl)cc1 | < 40% |  |
| CCC(=O)Nc1ccc(Br)cc1 | < 40% | Activity [4]: Active |
| C=CC(=O)N[C@@H](C)c1ccccc1 | < 40% |  |
| C=CC(=O)NCc1ccc(F)cc1 | < 40% |  |
| C=CC(=O)NCc1ccccc1Cl |  | inhibition [5]: inactive; inhibition [6]: Active; Inhibition Is Weaker Than Chikv Nsp2Pro |
| C=CC(=O)NCc1ccc2c(c1)OCO2 | < 40% |  |
| C=CC(=O)N(C(C)C)C1CCCCC1 | < 40% |  |
| CCC(=O)NCc1cccc(C(F)(F)F)c1 | < 40% | Activity [4]: Active |
| C=CC(=O)N[C@H](C)c1ccccc1 | < 40% |  |

| Structure (SMILES) | inhibition [1] | also measured |
| --- | --- | --- |
| C=CC(=O)Nc1ccc(OC)c(OC)c1 | < 40% |  |
| C=CC(=O)Nc1ccc(I)cc1 | > 40% |  |
| C=CC(=O)Nc1ccc(OC)cc1 | < 40% |  |
| C=CC(=O)N1CCN(C(=O)OC(C)(C)C)CC1 | < 40% |  |
| C=CC(=O)Nc1ccc(Br)cc1 | > 40% | IC50 [2]: 1300 µM; Activity [3]: Active; Activity [7]: 17%; inhibition [5]: inactive; inhibition [6]: Active; Inhibition Is Weaker Than Chikv Nsp2Pro |
| C=CC(=O)NCc1ccc(OC)cc1 | < 40% |  |
| C=CC(=O)NC1CCCCC1 | < 40% |  |
| C=CC(=O)Nc1c(CC(C)C)cccc1CC(C)C | < 40% |  |
| C=CC(=O)NCCc1c[nH]c2ccccc12 | > 40% |  |
| C=CC(=O)NCc1ccccc1 | < 40% |  |
| C=CC(=O)NCc1ccc(C(C)(C)C)cc1 | < 40% |  |
| C=CC(=O)Nc1ccc(OC)c(OC(=O)C=C)c1 | > 40% |  |
| C=CC(=O)Nc1ccc([N+](=O)[O-])cc1 | 100% |  |
| C=CC(=O)N[C@@H]1CCCC[C@H]1NC(=O)C=C | < 40% |  |
| C=CC(=O)NCc1ccc(C(F)(F)F)cc1 | < 40% |  |
| C=CC(=O)Nc1ccccc1 | < 40% |  |
| C=CC(=O)Nc1ccc(OC)c(O)c1 | > 40% |  |
